Columns and labels:
[1] = molecular target: T1, rat GPR55 (Rattus norvegicus, UniProt F1MAK4); experiment: Ca2+ mobilization assay (FLIPR, Calcium5 dye), rat GPR55; assay type: cell-based; settings: HEK293 cells co-expressing PK-tagged rat GPR55 and EA-tagged beta-arrestin; intracellular calcium increase
T1 construct: expressed in transfected cells; host or cells: HEK293 (human embryonic kidney) cells
T1 sequence (F1MAK4 1-319): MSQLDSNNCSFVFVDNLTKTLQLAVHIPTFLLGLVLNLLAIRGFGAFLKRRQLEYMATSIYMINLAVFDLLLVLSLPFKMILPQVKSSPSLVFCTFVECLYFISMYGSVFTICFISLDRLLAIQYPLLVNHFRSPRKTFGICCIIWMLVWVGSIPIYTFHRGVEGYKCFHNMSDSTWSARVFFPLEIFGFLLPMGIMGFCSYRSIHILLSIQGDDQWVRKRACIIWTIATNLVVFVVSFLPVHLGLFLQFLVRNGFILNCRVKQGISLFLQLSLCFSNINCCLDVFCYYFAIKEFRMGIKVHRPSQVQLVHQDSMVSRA
Protocol: (§1) This cell-based assay measures the ability of compounds to activate the GPR55 receptor by measuring changes in intracellular calcium levels. HEK293 (human embryonic kidney) cells co-expressing recombinant ProLink (PK) tagged human or rat GPR55 and Enzyme Acceptor (EA) tagged beta-arrestin were seeded into PDL-coated, black-walled clear-bottom 384 well plates in assay buffer (25 mM HEPES, HBSS, 1 mM Probenicid, 0.1% BSA, pH 7.4) containing Calcium5 dye (Molecular Devices). Cells were incubated in suspension with the Calcium5 dye for 1 hour at 37° C., 5% CO2. Dilution series of the compounds in assay buffer were added to the cells in duplicate wells and compound-mediated real-time increases in intracellular calcium concentration were recorded as increased fluorescence using the Molecular Devices FLIPR instrument. Kinetic traces were reduced to a numerical value by subtracting the minimum response from the maximum response.

[2] = molecular target: T2, human GPR55 (Homo sapiens, UniProt Q9Y2T6); experiment: Ca2+ mobilization assay (FLIPR, Calcium5 dye), human GPR55; assay type: cell-based; settings: HEK293 cells co-expressing PK-tagged human GPR55 and EA-tagged beta-arrestin; intracellular calcium increase
T2 construct: expressed in transfected cells; host or cells: HEK293 (human embryonic kidney) cells
Protocol: as §1

T2 sequence (Q9Y2T6 whole entry): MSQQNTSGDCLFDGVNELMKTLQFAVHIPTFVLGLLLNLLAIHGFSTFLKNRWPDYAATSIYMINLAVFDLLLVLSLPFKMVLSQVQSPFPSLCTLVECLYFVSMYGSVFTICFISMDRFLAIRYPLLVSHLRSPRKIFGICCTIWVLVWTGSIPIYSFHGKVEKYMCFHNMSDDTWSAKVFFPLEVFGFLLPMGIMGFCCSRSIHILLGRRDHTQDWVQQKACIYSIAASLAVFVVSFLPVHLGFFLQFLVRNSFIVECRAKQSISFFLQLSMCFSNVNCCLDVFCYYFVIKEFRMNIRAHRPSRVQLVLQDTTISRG

EC50 [1] [nM]	EC50 [2] [nM]	Structure (SMILES)
≤ 5000	≤ 1000	CCc1cncc(-c2ccc(N[C@H](C)c3ccc(OC)cc3)nc2)c1 [Example 47, (R)-5′-ethyl-N-(1-(4-methoxyphenyl)ethyl)-[3,3′-bipyridin]-6-amine]
≤ 5000	≤ 200	CC[S+]([O-])c1cncc(-c2cnc(N[C@H](C)c3ccc(F)cc3)cn2)c1 (stereo partly drawn) [Example 24, 5-(5-(ethylsulfinyl)pyridin-3-yl)-N-((R)-1-(4-fluorophenyl)ethyl)pyrazin-2-amine]
≤ 50	≤ 50	C[C@@H](Nc1cnc(-c2cncc(C(O)C(F)(F)F)c2)cn1)c1ccc(F)cc1 (single isomer, unassigned) [Example 32a]
≤ 200	≤ 1000	C[C@@H](Nc1cnc(-c2cncc(C(O)C(F)F)c2)cn1)c1ccc(F)cc1 (single isomer, unassigned) [Example 54a]
≤ 5000	≤ 1000	C[C@@H](Nc1ncc(-c2ccc3oc(=O)n(CS(C)(=O)=O)c3c2)nn1)c1ccc(F)cc1 [Example 72, (R)-5-(3-((1-(4-fluorophenyl)ethyl)amino)-1,2,4-triazin-6-yl)-3-((methylsulfonyl)methyl)benzo[d]oxazol-2(3H)-one]
≤ 200	≤ 1000	Cc1cncc(-c2ccc(NC(C)c3ccc(Cl)cc3)nc2)c1 (single isomer, unassigned) [Example 46a, N-(1-(4-chlorophenyl)ethyl)-5′-methyl-[3,3′-bipyridin]-6-amine]
≤ 5000	≤ 200	CC[S+]([O-])c1cncc(-c2ccc(N[C@H](C)c3ccc(F)cc3)nc2)c1 (stereo partly drawn) [Example 13, 5′-(ethylsulfinyl)-N-((R)-1-(4-fluorophenyl)ethyl)-[3,3′-bipyridin]-6-amine]
≤ 5000	≤ 200	C[C@@H](Nc1ccc(-c2cncc([S+](C)[O-])c2)cn1)c1ccc(F)cc1 (stereo partly drawn) [Example 14, N-((R)-1-(4-fluorophenyl)ethyl)-5′-(methylsulfinyl)-[3,3′-bipyridin]-6-amine]
≤ 1000	≤ 200	OC(c1cncc(-c2cnc(N[C@@H]3CCc4ccccc43)cn2)c1)C(F)F (stereo partly drawn) [Example 45, 1-(5-(5-(((R)-2,3-dihydro-1H-inden-1-yl)amino)pyrazin-2-yl)pyridin-3-yl)-2,2-difluoroethan-1-ol]
≤ 1000	≤ 200	C[C@@H](Nc1ncc(-c2ccc3oc(=O)n(C(F)F)c3c2)nn1)c1ccc(F)cc1 [Example 68, (R)-3-(difluoromethyl)-5-(3-((1-(4-fluorophenyl)ethyl)amino)-1,2,4-triazin-6-yl)benzo[d]oxazol-2(3H)-one]
≤ 1000	≤ 1000	C[C@@H](Nc1ncc(-c2ccc3oc(=O)n(C)c3c2)cn1)c1ccc(F)cc1 [Example 63, (R)-5-(2-((1-(4-fluorophenyl)ethyl)amino)pyrimidin-5-yl)-3-methylbenzo[d]oxazol-2(3H)-one]
≤ 5000	≤ 1000	C[C@@H](Nc1cnc(-c2cncc(CC(F)(F)F)c2)nn1)c1ccc(F)cc1 [Example 56, (R)-N-(1-(4-fluorophenyl)ethyl)-3-(5-(2,2,2-trifluoroethyl)pyridin-3-yl)-1,2,4-triazin-6-amine]
≤ 1000	≤ 200	C[C@@H](Nc1cnc(-c2cncc(OCC(F)(F)F)c2)cn1)c1ccc(F)cc1 [Example 42, (R)-N-(1-(4-fluorophenyl)ethyl)-5-(5-(2,2,2-trifluoroethoxy)pyridin-3-yl)pyrazin-2-amine]
≤ 1000	≤ 50	C=Cc1cncc(-c2cnc(N[C@H](C)c3ccc(F)cc3)cn2)c1 [Example 33, (R)-N-(1-(4-fluorophenyl)ethyl)-5-(5-vinylpyridin-3-yl)pyrazin-2-amine]
≤ 50	≤ 50	C=Cc1cncc(-c2ccc(N[C@H](C)c3ccc(F)cc3)nc2)c1 [Example 20, (R)-N-(1-(4-fluorophenyl)ethyl)-5′-vinyl-[3,3′-bipyridin]-6-amine]

— US20250282728A1, “NITROGEN COMPRISING HETEROCYCLIC DERIVATIVES FOR THE TREATMENT OF DISORDERS ASSOCIATED WITH GPR55 RECEPTOR” (Cerevance, Inc., priority 2022, published 2025)
